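Compound exposure: 48 hours, 5 concentrations, 96-well plates. The concentration for full growth arrest is given as TGI.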
How the values were obtained:
Test in all cases: NCI anticancer screen, dose series, 48 h
[1] = test system: HCC-2998 colon
[2] = test system: MCF7 breast
[3] = test system: U251 CNS
[4] = test system: OVCAR-3 ovarian
[5] = test system: HS 578T breast
[6] = test system: HOP-62 NSCLC
[7] = test system: SNB-19 CNS
[8] = test system: NCI-H23 lung
[9] = test system: DU-145 prostate
[10] = test system: MDA-N
[11] = test system: BT-549 breast
[12] = test system: A498 renal
[13] = test system: SK-OV-3 ovarian
[14] = test system: HL-60(TB) leukemia
[15] = test system: A549 NSCLC
[16] = test system: HOP-92 NSCLC
[17] = test system: OVCAR-8 ovarian
[18] = test system: RPMI-8226 leukemia
[19] = test system: UACC-257 melanoma

SMILES	TGI [1]	TGI [2]	TGI [3]	TGI [4]	TGI [5]	TGI [6]	TGI [7]	TGI [8]	TGI [9]	TGI [10]	TGI [11]	TGI [12]	TGI [13]	TGI [14]	TGI [15]	TGI [16]	TGI [17]	TGI [18]	TGI [19]
CC1(C)C2CC(=O)C1(C)C(O)C2Br (centres undefined)	> 100 µM	> 100 µM	> 100 µM	> 100 µM	> 100 µM	> 100 µM	> 100 µM	> 100 µM	> 100 µM	> 100 µM	> 100 µM	> 100 µM	> 100 µM	> 100 µM	> 100 µM	> 100 µM	> 100 µM	–	–
CC(C)(C)OC(=O)NCCC(N)=S	–	> 100 µM	> 100 µM	> 100 µM	> 100 µM	> 100 µM	> 100 µM	> 100 µM	> 100 µM	> 100 µM	> 100 µM	> 100 µM	> 100 µM	> 100 µM	> 100 µM	> 100 µM	> 100 µM	> 100 µM	> 100 µM
COC(=O)c1c2c(cc3c1CCC3)CCC2	> 100 µM	> 100 µM	> 100 µM	> 100 µM	> 100 µM	> 100 µM	> 100 µM	> 100 µM	> 100 µM	> 100 µM	> 100 µM	90.3 µM	> 100 µM	38.4 µM	> 100 µM	–	> 100 µM	52.4 µM	> 100 µM
N#CCc1nc(-c2ccccc2)n[nH]1	> 100 µM	> 100 µM	–	> 100 µM	> 100 µM	> 100 µM	> 100 µM	> 100 µM	> 100 µM	> 100 µM	> 100 µM	–	> 100 µM	> 100 µM	> 100 µM	–	> 100 µM	–	> 100 µM
O=C(CNc1c(Cl)cccc1Cl)NC1C=Cc2ccc(S(=O)(=O)Nc3c(Cl)cccc3Cl)cc2C1=O (centres undefined)	> 100 µM	> 100 µM	> 100 µM	> 100 µM	> 100 µM	> 100 µM	> 100 µM	> 100 µM	> 100 µM	> 100 µM	> 100 µM	–	> 100 µM	> 100 µM	> 100 µM	> 100 µM	> 100 µM	> 100 µM	> 100 µM
CNc1ncnc2c1cnn2COCC(O)CO (centres undefined)	> 100 µM	> 100 µM	> 100 µM	> 100 µM	> 100 µM	> 100 µM	> 100 µM	> 100 µM	> 100 µM	> 100 µM	> 100 µM	> 100 µM	> 100 µM	–	> 100 µM	> 100 µM	> 100 µM	> 100 µM	> 100 µM
CCOC(=O)C(Cl)(Cl)/S(=N\S(=O)(=O)c1ccccc1)NC(=O)c1ccccc1 (centres undefined)	–	> 100 µM	> 100 µM	> 100 µM	> 100 µM	> 100 µM	> 100 µM	> 100 µM	> 100 µM	> 100 µM	> 100 µM	> 100 µM	> 100 µM	> 100 µM	> 100 µM	> 100 µM	> 100 µM	> 100 µM	> 100 µM
Nc1nc(Cl)cc(NCC2(CO)CCC(CCc3ccccc3)C2)n1 (centres undefined)	33.8 µM	32.7 µM	31.1 µM	28.9 µM	52.7 µM	23.1 µM	31.3 µM	25.1 µM	30.2 µM	28.1 µM	30.3 µM	26.8 µM	35.1 µM	33.1 µM	32 µM	33.4 µM	44 µM	–	22.6 µM
S=C(/N=c1\sc(Nc2ccc(Cl)cc2)nc2sc3c(c12)CCN(N1CCc2c(sc4nc(Nc5ccc(Cl)cc5)s/c(=N\C(=S)Nc5ccc(Cl)cc5)c24)C1)C3)Nc1ccc(Cl)cc1	–	> 100 µM	61.9 µM	> 100 µM	> 100 µM	> 100 µM	> 100 µM	> 100 µM	64.6 µM	30.8 µM	> 100 µM	–	66.4 µM	–	> 100 µM	–	> 100 µM	–	> 100 µM
CSc1c(C#N)c(N)n(-c2ccc(C)cc2)c(=O)c1C#N	> 100 µM	> 100 µM	> 100 µM	> 100 µM	> 100 µM	–	> 100 µM	> 100 µM	> 100 µM	> 100 µM	> 100 µM	> 100 µM	> 100 µM	> 100 µM	> 100 µM	–	> 100 µM	> 100 µM	> 100 µM
O=C(Cc1ccccc1)NN1C(=O)/C(=C\c2ccccc2)SC1=Nc1ccccc1	> 100 µM	> 100 µM	> 100 µM	> 100 µM	> 100 µM	> 100 µM	> 100 µM	> 100 µM	> 100 µM	> 100 µM	> 100 µM	> 100 µM	> 100 µM	–	> 100 µM	> 100 µM	> 100 µM	–	> 100 µM
CC[n+]1[b-](C(C)(C)C)n(/N=C/C(C)(C)C)[b-](C(C)(C)C)[n+]1CC	> 100 µM	> 100 µM	> 100 µM	> 100 µM	> 100 µM	> 100 µM	> 100 µM	> 100 µM	–	> 100 µM	> 100 µM	–	–	–	> 100 µM	–	> 100 µM	–	> 100 µM
S=c1[nH]c2ccc(Br)cc2c(=S)s1	63.7 µM	40.8 µM	54.8 µM	> 100 µM	> 100 µM	> 100 µM	> 100 µM	82.6 µM	> 100 µM	54 µM	> 100 µM	–	> 100 µM	62.4 µM	> 100 µM	64.8 µM	> 100 µM	95.4 µM	69.5 µM
